Here are results for 13 molecules from PubChem BioAssay (NCI).

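Each compound was tested at five concentrations against cells in 96-well plates for 48 hours. At the TGI there is no net growth.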

Test systems include A498 renal; CCRF-CEM leukemia; COLO 205 colon; HCT-15 colon; KM12 colon; MDA-MB-435; MOLT-4 leukemia; NCI/ADR-RES ovarian; OVCAR-4 ovarian; SF-268 CNS; SK-OV-3 ovarian; T-47D breast; UO-31 renal.
Common to all, as to assay: NCI tumour cell line growth inhibition, 48 h

Turning to `Cc1ccc(-c2cc(N)n(-c3nc4c(c(=O)n(C)c(=O)n4C)n3C)n2)cc1`, the TGI with A498 renal, with CCRF-CEM leukemia, in the assay on COLO 205 colon, in the assay on HCT-15 colon, with KM12 colon and with MDA-MB-435 was greater than 100 µM each time. Besides, the TGI in the assay on MOLT-4 leukemia, in the assay with NCI/ADR-RES ovarian, in the assay with OVCAR-4 ovarian, with SF-268 CNS, in the assay on SK-OV-3 ovarian and in the assay with T-47D breast was greater than 100 µM in each case. The molecule also gave a TGI in the assay with UO-31 renal greater than 100 µM.

Take `COc1ccc(Nc2nc(NS(=O)(=O)c3cc(C)c(Cl)cc3S)n[nH]2)cc1`: the TGI with A498 renal, in the assay with CCRF-CEM leukemia, in the assay on COLO 205 colon, in the assay on HCT-15 colon, in the assay on KM12 colon and in the assay on MDA-MB-435 was greater than 100 µM in each case. In addition, the TGI in the assay on MOLT-4 leukemia, in the assay on NCI/ADR-RES ovarian, in the assay on OVCAR-4 ovarian, with SF-268 CNS, in the assay on SK-OV-3 ovarian and with T-47D breast was greater than 100 µM in each case. Moreover, in the assay with UO-31 renal, the TGI was greater than 100 µM.

Turning to `CN(NC(=O)c1cccs1)C1=NCCCN1`, the TGI in the assay with A498 renal, in the assay on CCRF-CEM leukemia, with COLO 205 colon, in the assay on HCT-15 colon, in the assay with KM12 colon and with MDA-MB-435 was greater than 100 µM throughout. Moreover, the TGI in the assay on MOLT-4 leukemia, in the assay with NCI/ADR-RES ovarian, with OVCAR-4 ovarian, with SF-268 CNS, in the assay on SK-OV-3 ovarian and with T-47D breast was greater than 100 µM throughout. For the same molecule, the TGI with UO-31 renal was greater than 100 µM.

As for `C[C@H](N)C(=O)Nc1ccc(-c2nc3ccccc3s2)cc1`, the TGI with A498 renal worked out at 90 µM; in the assay with CCRF-CEM leukemia, 24.8 µM; in the assay on COLO 205 colon, 33.1 µM; with HCT-15 colon it was 36.2 µM; in the assay with KM12 colon, 31.1 µM; in the assay with MDA-MB-435, 30.7 µM. Besides, the TGI is 31.4 µM in the assay with MOLT-4 leukemia; greater than 100 µM in the assay on NCI/ADR-RES ovarian; 36.6 µM with OVCAR-4 ovarian; greater than 100 µM in the assay with SF-268 CNS; 57.2 µM in the assay with SK-OV-3 ovarian; 36 µM in the assay on T-47D breast. In addition, the TGI in the assay on UO-31 renal came to 28.4 µM.

In the case of `CCC(C#N)NC(=O)NC(C#N)CC` (centres undefined), the TGI in the assay on A498 renal, with CCRF-CEM leukemia, in the assay on COLO 205 colon, with HCT-15 colon, in the assay with KM12 colon and in the assay on MDA-MB-435 was greater than 100 µM in each case. The TGI in the assay on MOLT-4 leukemia, in the assay on NCI/ADR-RES ovarian, in the assay on OVCAR-4 ovarian, with SF-268 CNS, in the assay on SK-OV-3 ovarian and in the assay with T-47D breast was greater than 100 µM throughout. Moreover, in the assay with UO-31 renal, the TGI was greater than 100 µM.

In the case of `CCOC(=O)/C1=C(\C)N(c2ccc(C)cc2)C(=O)c2ccccc2C(=O)c2c(OC(C)=O)ccc(OC(C)=O)c21`, the TGI in the assay on A498 renal was greater than 100 µM; in the assay with CCRF-CEM leukemia, 26.2 µM; in the assay with COLO 205 colon, 26.3 µM; in the assay on HCT-15 colon it was 43.9 µM; in the assay with KM12 colon it was 40.6 µM; in the assay with MDA-MB-435, 41.5 µM. Besides, the TGI in the assay with MOLT-4 leukemia is 21.4 µM; with NCI/ADR-RES ovarian, 53.9 µM; in the assay on OVCAR-4 ovarian it was 54.2 µM; in the assay with SF-268 CNS it was greater than 100 µM; in the assay on SK-OV-3 ovarian it was 70.9 µM; with T-47D breast, 76.5 µM. This molecule also came in with a TGI with UO-31 renal greater than 100 µM.

Take `O=C1CCCCC(=O)OC2(CCCCC2=O)CC1` (centres undefined): the TGI with A498 renal, in the assay on CCRF-CEM leukemia, with COLO 205 colon, in the assay with HCT-15 colon, in the assay with KM12 colon and in the assay with MDA-MB-435 was greater than 100 µM each time. Further, the TGI with MOLT-4 leukemia, in the assay with NCI/ADR-RES ovarian, with OVCAR-4 ovarian, in the assay with SF-268 CNS, with SK-OV-3 ovarian and in the assay on T-47D breast was greater than 100 µM in each case. The same molecule had a TGI in the assay with UO-31 renal greater than 100 µM.

In the case of `Cc1cn(C2CC(n3cc(Cn4cc(Br)c(=O)[nH]c4=O)nn3)C(CO)O2)c(=O)[nH]c1=O` (centres undefined), the TGI in the assay on A498 renal, in the assay on CCRF-CEM leukemia, with COLO 205 colon, with HCT-15 colon, in the assay with KM12 colon and in the assay on MDA-MB-435 was greater than 100 µM in each case. Besides, the TGI in the assay with MOLT-4 leukemia, in the assay with NCI/ADR-RES ovarian, in the assay with OVCAR-4 ovarian, in the assay with SF-268 CNS, in the assay on SK-OV-3 ovarian and in the assay with T-47D breast was greater than 100 µM throughout. This molecule also displayed a TGI with UO-31 renal greater than 100 µM.

Take `CCC1(C(=O)OC(C)(C)C)OC12C(C)CCCC2C` (centres undefined): the TGI with A498 renal was greater than 100 µM; in the assay with CCRF-CEM leukemia, 39.8 µM; in the assay with COLO 205 colon, 63 µM; in the assay on HCT-15 colon, greater than 100 µM; in the assay on KM12 colon, greater than 100 µM; with MDA-MB-435, greater than 100 µM. The TGI with MOLT-4 leukemia is 41.2 µM; in the assay with NCI/ADR-RES ovarian, greater than 100 µM; in the assay with OVCAR-4 ovarian it was greater than 100 µM; with SF-268 CNS, greater than 100 µM; in the assay on SK-OV-3 ovarian, greater than 100 µM; with T-47D breast, greater than 100 µM. In the assay on UO-31 renal, this molecule returned a TGI greater than 100 µM.

As for `CC(=O)c1ccc2c3c1[C@@H]1O[C@@H]1c1cccc(c1-3)[C@@H]1O[C@H]21`, the TGI in the assay with A498 renal was greater than 85.8 µM; in the assay with CCRF-CEM leukemia it was greater than 100 µM; in the assay with COLO 205 colon, 28.2 µM; in the assay with HCT-15 colon, 12.5 µM; in the assay on KM12 colon, 21.4 µM; with MDA-MB-435 it was 25.7 µM. In addition, the TGI in the assay with MOLT-4 leukemia was greater than 100 µM; in the assay with NCI/ADR-RES ovarian, greater than 74.6 µM; with OVCAR-4 ovarian, 27.3 µM; with SF-268 CNS, 27.4 µM; in the assay on SK-OV-3 ovarian, 76.1 µM; in the assay with T-47D breast, 23.7 µM. In the assay with UO-31 renal, the TGI was determined as 30.2 µM.

In the case of `N#C/C(=C\n1ccc(=O)[nH]c1=S)C(N)=O`, the TGI in the assay with A498 renal, in the assay with CCRF-CEM leukemia, with COLO 205 colon, with HCT-15 colon, with KM12 colon and in the assay on MDA-MB-435 was greater than 100 µM each time. In addition, the TGI in the assay on MOLT-4 leukemia, with NCI/ADR-RES ovarian, in the assay with OVCAR-4 ovarian, in the assay on SF-268 CNS, with SK-OV-3 ovarian and in the assay with T-47D breast was greater than 100 µM each time. Also, the TGI in the assay on UO-31 renal is greater than 100 µM.

In the case of `NP(=O)(OCC1=CC(=O)c2ccccc2C1=O)N(CCBr)CCBr` (centres undefined), the TGI in the assay with A498 renal is 39.3 µM; in the assay on CCRF-CEM leukemia, greater than 100 µM; in the assay on COLO 205 colon it was greater than 21.1 µM; in the assay on HCT-15 colon, 20.1 µM; in the assay with KM12 colon it was 25 µM; with MDA-MB-435, 4.74 µM. Moreover, the TGI was 10.8 µM in the assay on MOLT-4 leukemia; greater than 73.4 µM in the assay with NCI/ADR-RES ovarian; 31.6 µM with OVCAR-4 ovarian; 26.7 µM with SF-268 CNS; 30.9 µM in the assay with SK-OV-3 ovarian; 29.7 µM in the assay with T-47D breast. Further, the TGI in the assay on UO-31 renal was 24.1 µM.

`O=c1nc2c(c(-c3ccccc3Cl)[nH]1)COC/C2=C\c1ccccc1Cl`: the TGI in the assay on A498 renal, with CCRF-CEM leukemia, in the assay with COLO 205 colon, in the assay on HCT-15 colon, in the assay on KM12 colon and with MDA-MB-435 was greater than 100 µM in each case. In addition, the TGI in the assay on MOLT-4 leukemia, in the assay on NCI/ADR-RES ovarian, in the assay on OVCAR-4 ovarian, in the assay with SF-268 CNS, with SK-OV-3 ovarian and in the assay on T-47D breast was greater than 100 µM each time. Also, in the assay on UO-31 renal, the TGI is greater than 100 µM.
